# Measured values from PubChem BioAssay AID1918949 (Molecular Pharmacology Branch, DTP, NCI, 2023).
# System: K24384-001-R-PDC complex spheroid viability
# Assay: Anticancer human tumor K24384-001-R-PDC patient-derived pancreatic adenocarcinoma cell line growth inhibition
# Details: for IC50: curve of first compound; for viability, T/C: stronger effect = lower value
# In short: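 Multicellular complex spheroids of tumor cells with human endothelial cells (HUVEC) and mesenchymal stem cells; the LSD1 inhibitor iadademstat was combined with standard-of-care or investigational agents. Top concentration at or near clinical Cmax, half-log dilutions; final DMSO ≤0.25%.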
# 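Also: spheroids exposed to agents for seven days before luminescence viability reading.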
# 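For viability, T/C in this document: 100% = DMSO vehicle control viability.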
smiles,measurement,setting,value
CCN(c1cc(-c2ccc(CN3CCOCC3)cc2)cc(C(=O)NCc2c(C)cc(C)[nH]c2=O)c1C)C1CCOCC1 + NC1CC1c1ccc(-c2cccc(O)c2)cc1,IC50,second compound 0.1 µM,> 3000 nM
same,IC50,second compound 0.316 µM,> 3000 nM
same,IC50,second compound 1 µM,> 3000 nM
same,IC50,second compound 3.16 µM,> 3000 nM
same,IC50,second compound 10 µM,> 3000 nM
same,"viability, T/C","second compound 0.1 µM, first compound 0.00949 µM",113%
same,"viability, T/C","second compound 0.1 µM, first compound 0.03 µM",115%
same,"viability, T/C","second compound 0.1 µM, first compound 0.0949 µM",102%
same,"viability, T/C","second compound 0.1 µM, first compound 0.3 µM",103%
same,"viability, T/C","second compound 0.1 µM, first compound 0.949 µM",98.9%
same,"viability, T/C","second compound 0.1 µM, first compound 3 µM",62.8%
same,"viability, T/C","second compound 0.316 µM, first compound 0.00949 µM",113%
same,"viability, T/C","second compound 0.316 µM, first compound 0.03 µM",104%
same,"viability, T/C","second compound 0.316 µM, first compound 0.0949 µM",118%
same,"viability, T/C","second compound 0.316 µM, first compound 0.3 µM",103%
same,"viability, T/C","second compound 0.316 µM, first compound 0.949 µM",94.2%
same,"viability, T/C","second compound 0.316 µM, first compound 3 µM",71.8%
same,"viability, T/C","second compound 1 µM, first compound 0.00949 µM",100%
same,"viability, T/C","second compound 1 µM, first compound 0.03 µM",112%
same,"viability, T/C","second compound 1 µM, first compound 0.0949 µM",107%
same,"viability, T/C","second compound 1 µM, first compound 0.3 µM",95.8%
same,"viability, T/C","second compound 1 µM, first compound 0.949 µM",96.7%
same,"viability, T/C","second compound 1 µM, first compound 3 µM",65.5%
same,"viability, T/C","second compound 3.16 µM, first compound 0.00949 µM",109%
same,"viability, T/C","second compound 3.16 µM, first compound 0.03 µM",126%
same,"viability, T/C","second compound 3.16 µM, first compound 0.0949 µM",108%
same,"viability, T/C","second compound 3.16 µM, first compound 0.3 µM",111%
same,"viability, T/C","second compound 3.16 µM, first compound 0.949 µM",96.2%
same,"viability, T/C","second compound 3.16 µM, first compound 3 µM",69.7%
same,"viability, T/C","second compound 10 µM, first compound 0.00949 µM",127%
same,"viability, T/C","second compound 10 µM, first compound 0.03 µM",132%
same,"viability, T/C","second compound 10 µM, first compound 0.0949 µM",109%
same,"viability, T/C","second compound 10 µM, first compound 0.3 µM",127%
same,"viability, T/C","second compound 10 µM, first compound 0.949 µM",104%
same,"viability, T/C","second compound 10 µM, first compound 3 µM",77.6%
COc1cc(Nc2ncc3c(n2)-c2ccc(Cl)cc2C(c2c(F)cccc2OC)=NC3)ccc1C(=O)O + NC1CCC(NC2CC2c2ccccc2)CC1,IC50,second compound 0.1 µM,> 1000 nM
same,IC50,second compound 0.316 µM,> 1000 nM
same,IC50,second compound 1 µM,> 1000 nM
same,IC50,second compound 3.16 µM,> 1000 nM
same,IC50,second compound 10 µM,> 1000 nM
same,"viability, T/C","second compound 0.1 µM, first compound 0.00316 µM",82.2%
same,"viability, T/C","second compound 0.1 µM, first compound 0.01 µM",91.4%
same,"viability, T/C","second compound 0.1 µM, first compound 0.0316 µM",70.1%
same,"viability, T/C","second compound 0.1 µM, first compound 0.1 µM",54.5%
same,"viability, T/C","second compound 0.1 µM, first compound 0.316 µM",58.4%
same,"viability, T/C","second compound 0.1 µM, first compound 1 µM",84.1%
same,"viability, T/C","second compound 0.316 µM, first compound 0.00316 µM",87.8%
same,"viability, T/C","second compound 0.316 µM, first compound 0.01 µM",72%
same,"viability, T/C","second compound 0.316 µM, first compound 0.0316 µM",71%
same,"viability, T/C","second compound 0.316 µM, first compound 0.1 µM",56.7%
same,"viability, T/C","second compound 0.316 µM, first compound 0.316 µM",52.2%
same,"viability, T/C","second compound 0.316 µM, first compound 1 µM",58.6%
same,"viability, T/C","second compound 1 µM, first compound 0.00316 µM",71.1%
same,"viability, T/C","second compound 1 µM, first compound 0.01 µM",87.3%
same,"viability, T/C","second compound 1 µM, first compound 0.0316 µM",59.8%
same,"viability, T/C","second compound 1 µM, first compound 0.1 µM",53.8%
same,"viability, T/C","second compound 1 µM, first compound 0.316 µM",67.3%
same,"viability, T/C","second compound 1 µM, first compound 1 µM",60.7%
same,"viability, T/C","second compound 3.16 µM, first compound 0.00316 µM",83.7%
same,"viability, T/C","second compound 3.16 µM, first compound 0.01 µM",77.6%
same,"viability, T/C","second compound 3.16 µM, first compound 0.0316 µM",62.2%
same,"viability, T/C","second compound 3.16 µM, first compound 0.1 µM",57.3%
same,"viability, T/C","second compound 3.16 µM, first compound 0.316 µM",51.9%
same,"viability, T/C","second compound 3.16 µM, first compound 1 µM",60.6%
same,"viability, T/C","second compound 10 µM, first compound 0.00316 µM",80.8%
same,"viability, T/C","second compound 10 µM, first compound 0.01 µM",84.1%
same,"viability, T/C","second compound 10 µM, first compound 0.0316 µM",58.9%
same,"viability, T/C","second compound 10 µM, first compound 0.1 µM",58.8%
same,"viability, T/C","second compound 10 µM, first compound 0.316 µM",52.4%
same,"viability, T/C","second compound 10 µM, first compound 1 µM",60.8%
